Data taken from ChEMBL document CHEMBL3045532, “Synthesis and evaluation of novel prodrugs of naproxen” (Med Chem Res, 2011).

How the values were obtained:
Rattus norvegicus [1] = experiment: Anti-inflammatory activity in Rattus norvegicus Wistar (rat) assessed as inhibition of carrageenan-induced edema volume at 67.6 mg/kg, po measured after 120 min; type: functional; conditions: 2 h
Rattus norvegicus [2] = experiment: Anti-inflammatory activity in Rattus norvegicus Wistar (rat) assessed as inhibition of carrageenan-induced edema volume at 67.6 mg/kg, po measured after 60 min; type: functional; conditions: 1 h
Mus musculus [3] = experiment: Analgesic activity in Mus musculus (mouse) assessed as inhibition of acetic acid-induced writhing at 67.6 mg/kg, po pretreated 1 hr before acetic acid challenge; type: functional
Rattus norvegicus [4] = experiment: Anti-inflammatory activity in Rattus norvegicus Wistar (rat) assessed as inhibition of carrageenan-induced edema volume at 67.6 mg/kg, po measured after 30 min; type: functional; conditions: 0.5 h
Rattus norvegicus [5] = experiment: Anti-inflammatory activity in Rattus norvegicus Wistar (rat) assessed as inhibition of carrageenan-induced edema volume at 67.6 mg/kg, po measured after 90 min; type: functional; conditions: 1.5 h
Mus musculus [6] = experiment: Analgesic activity in Mus musculus (mouse) assessed as inhibition of acetic acid-induced writhing at 68.9 mg/kg, po pretreated 1 hr before acetic acid challenge; type: functional
Rattus norvegicus [7] = experiment: Anti-inflammatory activity in Rattus norvegicus Wistar (rat) assessed as inhibition of carrageenan-induced edema volume at 68.9 mg/kg, po measured after 120 min; type: functional; conditions: 2 h
Rattus norvegicus [8] = experiment: Anti-inflammatory activity in Rattus norvegicus Wistar (rat) assessed as inhibition of carrageenan-induced edema volume at 68.9 mg/kg, po measured after 30 min; type: functional; conditions: 0.5 h
Rattus norvegicus [9] = experiment: Anti-inflammatory activity in Rattus norvegicus Wistar (rat) assessed as inhibition of carrageenan-induced edema volume at 68.9 mg/kg, po measured after 90 min; type: functional; conditions: 1.5 h
Rattus norvegicus [10] = experiment: Anti-inflammatory activity in Rattus norvegicus Wistar (rat) assessed as inhibition of carrageenan-induced edema volume at 68.9 mg/kg, po measured after 60 min; type: functional; conditions: 1 h
Rattus norvegicus [11] = experiment: Anti-inflammatory activity in Rattus norvegicus Wistar (rat) assessed as inhibition of carrageenan-induced edema volume at 67.0 mg/kg, po measured after 60 min; type: functional; conditions: 1 h
Rattus norvegicus [12] = experiment: Anti-inflammatory activity in Rattus norvegicus Wistar (rat) assessed as inhibition of carrageenan-induced edema volume at 67.0 mg/kg, po measured after 30 min; type: functional; conditions: 0.5 h
Mus musculus [13] = experiment: Analgesic activity in Mus musculus (mouse) assessed as inhibition of acetic acid-induced writhing at 67 mg/kg, po pretreated 1 hr before acetic acid challenge; type: functional
Rattus norvegicus [14] = experiment: Anti-inflammatory activity in Rattus norvegicus Wistar (rat) assessed as inhibition of carrageenan-induced edema volume at 67.0 mg/kg, po measured after 90 min; type: functional; conditions: 1.5 h
Rattus norvegicus [15] = experiment: Anti-inflammatory activity in Rattus norvegicus Wistar (rat) assessed as inhibition of carrageenan-induced edema volume at 67.0 mg/kg, po measured after 120 min; type: functional; conditions: 2 h
Rattus norvegicus [16] = experiment: Anti-inflammatory activity in Rattus norvegicus Wistar (rat) assessed as inhibition of carrageenan-induced edema volume at 66.2 mg/kg, po measured after 30 min; type: functional; conditions: 0.5 h
Rattus norvegicus [17] = experiment: Anti-inflammatory activity in Rattus norvegicus Wistar (rat) assessed as inhibition of carrageenan-induced edema volume at 66.2 mg/kg, po measured after 60 min; type: functional; conditions: 1 h
Mus musculus [18] = experiment: Analgesic activity in Mus musculus (mouse) assessed as inhibition of acetic acid-induced writhing at 66.2 mg/kg, po pretreated 1 hr before acetic acid challenge; type: functional
Rattus norvegicus [19] = experiment: Anti-inflammatory activity in Rattus norvegicus Wistar (rat) assessed as inhibition of carrageenan-induced edema volume at 66.2 mg/kg, po measured after 120 min; type: functional; conditions: 2 h
Rattus norvegicus [20] = experiment: Anti-inflammatory activity in Rattus norvegicus Wistar (rat) assessed as inhibition of carrageenan-induced edema volume at 66.2 mg/kg, po measured after 90 min; type: functional; conditions: 1.5 h
[21] = Prodrug conversion in acetate buffer assessed as half-life for hydrolysis at pH 5; type: physicochemical
[22] = Prodrug conversion in phosphate buffer assessed as half-life for hydrolysis at pH 7.4; type: physicochemical
Rattus norvegicus [23] = experiment: Anti-inflammatory activity in Rattus norvegicus Wistar (rat) assessed as inhibition of carrageenan-induced edema volume at 71.9 mg/kg, po measured after 90 min; type: functional; conditions: 1.5 h
[24] = Prodrug conversion in acetate buffer assessed as half-life for hydrolysis at pH 3; type: physicochemical
Mus musculus [25] = experiment: Analgesic activity in Mus musculus (mouse) assessed as inhibition of acetic acid-induced writhing at 71.9 mg/kg, po pretreated 1 hr before acetic acid challenge; type: functional
[26] = Prodrug conversion in acetate buffer assessed as half-life for hydrolysis at pH 4; type: physicochemical
Rattus norvegicus [27] = experiment: Anti-inflammatory activity in Rattus norvegicus Wistar (rat) assessed as inhibition of carrageenan-induced edema volume at 71.9 mg/kg, po measured after 30 min; type: functional; conditions: 0.5 h
Rattus norvegicus [28] = experiment: Anti-inflammatory activity in Rattus norvegicus Wistar (rat) assessed as inhibition of carrageenan-induced edema volume at 71.9 mg/kg, po measured after 60 min; type: functional; conditions: 1 h
Rattus norvegicus [29] = experiment: Anti-inflammatory activity in Rattus norvegicus Wistar (rat) assessed as inhibition of carrageenan-induced edema volume at 71.9 mg/kg, po measured after 120 min; type: functional; conditions: 2 h

SMILES: COc1ccc2cc(C(C)C(=O)OCC(OC(C)=O)C(OC(C)=O)C(OC(C)=O)C(/C=N/[C@@H](CC(=O)O)C(=O)O)OC(C)=O)ccc2c1 (some centres undefined)
- inhibition in vivo at 67.6 mg/kg (Rattus norvegicus [1]): 45%
- inhibition in vivo at 67.6 mg/kg (Rattus norvegicus [2]): 1%
- inhibition in vivo at 67.6 mg/kg (Mus musculus [3]): 75.1%
- inhibition in vivo at 67.6 mg/kg (Rattus norvegicus [4]): 20%
- inhibition in vivo at 67.6 mg/kg (Rattus norvegicus [5]): 28%

SMILES: COc1ccc2cc(C(C)C(=O)OCC(OC(C)=O)C(OC(C)=O)C(OC(C)=O)C(/C=N/[C@@H](CCC(=O)O)C(=O)O)OC(C)=O)ccc2c1 (some centres undefined)
- inhibition in vivo at 68.9 mg/kg (Mus musculus [6]): 64.1%
- inhibition in vivo at 68.9 mg/kg (Rattus norvegicus [7]): 66%
- inhibition in vivo at 68.9 mg/kg (Rattus norvegicus [8]): 32%
- inhibition in vivo at 68.9 mg/kg (Rattus norvegicus [9]): 53%
- inhibition in vivo at 68.9 mg/kg (Rattus norvegicus [10]): 32%

SMILES: COc1ccc2cc(C(C)C(=O)OCC(OC(C)=O)C(OC(C)=O)C(OC(C)=O)C(/C=N/[C@@H](Cc3cnc[nH]3)C(=O)O)OC(C)=O)ccc2c1 (some centres undefined)
- inhibition in vivo at 67 mg/kg (Rattus norvegicus [11]): 13%
- inhibition in vivo at 67 mg/kg (Rattus norvegicus [12]): 26%
- inhibition in vivo at 67 mg/kg (Mus musculus [13]): 65.9%
- inhibition in vivo at 67 mg/kg (Rattus norvegicus [14]): 39%
- inhibition in vivo at 67 mg/kg (Rattus norvegicus [15]): 58%

SMILES: COc1ccc2cc(C(C)C(=O)OCC(OC(C)=O)C(OC(C)=O)C(OC(C)=O)C(/C=N/[C@H](C(=O)O)[C@@H](C)O)OC(C)=O)ccc2c1 (some centres undefined)
- inhibition in vivo at 66.2 mg/kg (Rattus norvegicus [16]): 18%
- inhibition in vivo at 66.2 mg/kg (Rattus norvegicus [17]): 24%
- inhibition in vivo at 66.2 mg/kg (Mus musculus [18]): 60.4%
- inhibition in vivo at 66.2 mg/kg (Rattus norvegicus [19]): 58%
- inhibition in vivo at 66.2 mg/kg (Rattus norvegicus [20]): 39%

SMILES: COc1ccc2cc(C(C)C(=O)OCC(OC(C)=O)C(OC(C)=O)C(OC(C)=O)C(/C=N/[C@@H](Cc3c[nH]c4ccccc34)C(=O)O)OC(C)=O)ccc2c1 (some centres undefined)
- t1/2 [21]: 57 h
- t1/2 [22]: 18 h
- inhibition in vivo at 71.9 mg/kg (Rattus norvegicus [23]): 36%
- t1/2 [24]: 88 h
- inhibition in vivo at 71.9 mg/kg (Mus musculus [25]): 73.7%
- t1/2 [26]: 115 h
- inhibition in vivo at 71.9 mg/kg (Rattus norvegicus [27]): 18%
- inhibition in vivo at 71.9 mg/kg (Rattus norvegicus [28]): 16%
- inhibition in vivo at 71.9 mg/kg (Rattus norvegicus [29]): 70%
